Measured values reported in the supplement of paper PMC10307832.

Compound: Cc1ccc(NC(=O)c2ccc(CN3CCN(C)CC3)cc2)cc1Nc1nc(-c2cccnc2)cs1 [Masitinib] + Cc1nc(NC(=O)N2CCC[C@H]2C(N)=O)sc1-c1ccnc(C(C)(C)C(F)(F)F)c1 [Alpelisib] (partner 2 µM)
Assay: relative viability (nuclei count vs DMSO), 5 days (fraction); higher = more cells survive
Conditions: first compound 0.01 µM
Method in brief: (§1)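 Five library-drug doses in √10 steps were combined with a fixed anchor-drug dose, or a single drug was given alone, by pin tool to lung cancer cell lines in 1536-well plates the day after seeding. Nuclei were stained and counted after 5 days. Relative viability is the nuclei count in treated wells over that in vehicle wells, taken as the median of duplicate plates.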

In order of rising relative viability:
1. LCLC-97TM1  0.25
2. HCC-78  0.342
3. NCI-H460  0.479
4. NCI-H1975  0.62
5. NCI-H23  0.639
6. NCI-H727  0.652
7. NCI-H441  0.675
8. LOU-NH91  0.711
9. NCI-H358  0.734
10. HOP-62  0.777
11. NCI-H322M  0.782
12. HARA  0.798
13. HCC-15  0.8
14. NCI-H2405  0.838
15. NCI-H2085  0.838
16. NCI-H1355  0.857
17. 201T  0.866
18. NCI-H3122  0.87
19. LXF-289  0.886
20. HCC-827  0.91
21. NCI-H1437  0.918
22. NCI-H1666  0.92
23. NCI-H2347  0.981
24. EPLC-272H  0.999
25. PC-3 [JPC-3]  1.01
26. NCI-H1395  1.12
27. NCI-H650  1.14
28. BEN  1.21
29. CAL-12T  1.21

Same assay, conditions: first compound 0.03162 µM

In order of rising relative viability:
1. HCC-78  0.188
2. LCLC-97TM1  0.241
3. NCI-H23  0.49
4. NCI-H460  0.522
5. HARA  0.621
6. NCI-H1975  0.622
7. NCI-H727  0.657
8. LOU-NH91  0.662
9. NCI-H1355  0.707
10. NCI-H3122  0.758
11. NCI-H322M  0.778
12. NCI-H1944  0.78
13. NCI-H358  0.802
14. NCI-H441  0.822
15. NCI-H1755  0.847
16. HCC-15  0.873
17. BEN  0.901
18. EPLC-272H  0.902
19. NCI-H2405  0.945
20. NCI-H1437  0.979
21. HCC-827  0.994
22. NCI-H2085  1
23. LXF-289  1.01
24. NCI-H1395  1.01
25. 201T  1.01
26. NCI-H650  1.03
27. PC-3 [JPC-3]  1.03
28. NCI-H1666  1.05
29. NCI-H1915  1.06
30. HOP-62  1.09
31. A-427  1.09
32. NCI-H2347  1.14
33. CAL-12T  1.2

Same assay, conditions: first compound 0.1 µM

In order of falling relative viability:
1. BEN  1.3
2. HOP-62  1.18
3. CAL-12T  1.18
4. NCI-H650  1.17
5. EPLC-272H  1.12
6. NCI-H1395  1.1
7. HCC-827  1.1
8. NCI-H2085  1.09
9. NCI-H1915  1.07
10. LXF-289  1.03
11. NCI-H1755  1.01
12. NCI-H2347  1.01
13. NCI-H1437  1.01
14. 201T  0.978
15. PC-3 [JPC-3]  0.978
16. HCC-15  0.976
17. NCI-H1666  0.943
18. NCI-H1355  0.938
19. NCI-H322M  0.932
20. NCI-H1944  0.925
21. NCI-H2405  0.896
22. NCI-H441  0.873
23. LOU-NH91  0.819
24. NCI-H358  0.813
25. HARA  0.809
26. NCI-H3122  0.785
27. NCI-H1975  0.684
28. NCI-H23  0.659
29. NCI-H460  0.521
30. NCI-H727  0.517
31. HCC-78  0.438
32. LCLC-97TM1  0.275

Same assay, conditions: first compound 0.3162 µM

In order of rising relative viability:
1. HCC-78  0.306
2. LCLC-97TM1  0.402
3. NCI-H460  0.429
4. NCI-H23  0.579
5. NCI-H1975  0.602
6. NCI-H727  0.603
7. NCI-H1355  0.668
8. LOU-NH91  0.683
9. NCI-H1944  0.699
10. NCI-H441  0.703
11. NCI-H1666  0.706
12. HARA  0.727
13. NCI-H2405  0.737
14. NCI-H322M  0.763
15. NCI-H358  0.788
16. HCC-15  0.85
17. 201T  0.877
18. NCI-H3122  0.899
19. HCC-827  0.928
20. NCI-H2085  0.935
21. NCI-H1755  0.972
22. LXF-289  1
23. PC-3 [JPC-3]  1.03
24. NCI-H1915  1.04
25. A-427  1.05
26. HOP-62  1.07
27. EPLC-272H  1.07
28. NCI-H1437  1.08
29. NCI-H2347  1.13
30. NCI-H1395  1.16
31. NCI-H650  1.31
32. BEN  1.34
33. CAL-12T  1.36

Same assay, conditions: first compound 1 µM

In order of falling relative viability:
1. CAL-12T  1.18
2. NCI-H1395  1.09
3. A-427  1.08
4. NCI-H650  1.08
5. NCI-H1915  1.07
6. NCI-H2347  1.05
7. LXF-289  1.02
8. PC-3 [JPC-3]  1.01
9. HCC-827  0.997
10. NCI-H1666  0.99
11. 201T  0.989
12. NCI-H2085  0.985
13. NCI-H1437  0.962
14. BEN  0.945
15. HCC-15  0.916
16. EPLC-272H  0.898
17. NCI-H358  0.852
18. NCI-H1944  0.84
19. NCI-H1755  0.833
20. HOP-62  0.83
21. HARA  0.822
22. NCI-H3122  0.821
23. NCI-H2405  0.802
24. NCI-H322M  0.793
25. NCI-H727  0.74
26. NCI-H1355  0.731
27. LOU-NH91  0.713
28. NCI-H23  0.669
29. NCI-H441  0.653
30. NCI-H1975  0.604
31. NCI-H460  0.471
32. HCC-78  0.332
33. LCLC-97TM1  0.27

Compound: CC1=CC(=CC=C1)NC2=NC(=CS2)C3=CC=NC=C3 + Cc1cc(Nc2cc(N3CCN(C)CC3)nc(Sc3ccc(NC(=O)C4CC4)cc3)n2)n[nH]1 [Tozasertib] (partner 0.1 µM)
Assay: as above
Conditions: first compound 0.08 µM
Method in brief: as §1

In order of rising relative viability:
1. NCI-H358  0.112
2. HARA  0.112
3. LXF-289  0.168
4. LCLC-97TM1  0.2
5. A-427  0.245
6. NCI-H1944  0.291
7. EPLC-272H  0.294
8. HOP-62  0.378
9. CAL-12T  0.381
10. NCI-H3122  0.386
11. NCI-H23  0.404
12. HCC-15  0.413
13. HCC-827  0.415
14. NCI-H1437  0.417
15. NCI-H322M  0.419
16. BEN  0.437
17. NCI-H1915  0.455
18. NCI-H460  0.486
19. NCI-H2347  0.51
20. NCI-H1355  0.518
21. NCI-H1755  0.539
22. NCI-H1666  0.588
23. NCI-H1395  0.604
24. LOU-NH91  0.607
25. NCI-H441  0.617
26. NCI-H2405  0.65
27. NCI-H650  0.654
28. NCI-H1975  0.693
29. NCI-H2085  0.748
30. PC-3 [JPC-3]  0.837
31. 201T  1.04

Same assay, conditions: first compound 0.253 µM

In order of rising relative viability:
1. HARA  0.101
2. NCI-H358  0.116
3. LXF-289  0.182
4. A-427  0.185
5. EPLC-272H  0.206
6. LCLC-97TM1  0.236
7. NCI-H1944  0.24
8. CAL-12T  0.277
9. NCI-H23  0.324
10. NCI-H460  0.337
11. HOP-62  0.381
12. HCC-827  0.392
13. HCC-78  0.402
14. NCI-H1915  0.442
15. HCC-15  0.443
16. NCI-H322M  0.444
17. NCI-H3122  0.455
18. NCI-H1437  0.465
19. NCI-H1355  0.516
20. NCI-H441  0.536
21. BEN  0.557
22. NCI-H1666  0.56
23. NCI-H727  0.582
24. NCI-H2347  0.605
25. NCI-H1755  0.608
26. NCI-H650  0.646
27. NCI-H1975  0.654
28. LOU-NH91  0.709
29. NCI-H2405  0.727
30. NCI-H2085  0.744
31. NCI-H1395  0.782
32. PC-3 [JPC-3]  0.803
33. 201T  0.94

Same assay, conditions: first compound 0.8 µM

In order of rising relative viability:
1. HARA  0.104
2. NCI-H358  0.11
3. LXF-289  0.188
4. A-427  0.216
5. NCI-H1944  0.226
6. LCLC-97TM1  0.246
7. EPLC-272H  0.248
8. NCI-H1975  0.281
9. NCI-H23  0.296
10. HCC-15  0.304
11. CAL-12T  0.32
12. HOP-62  0.363
13. HCC-78  0.365
14. NCI-H460  0.395
15. NCI-H1915  0.411
16. NCI-H1355  0.428
17. NCI-H1437  0.448
18. HCC-827  0.45
19. NCI-H3122  0.47
20. NCI-H1755  0.47
21. NCI-H322M  0.478
22. NCI-H1666  0.503
23. BEN  0.512
24. NCI-H441  0.527
25. NCI-H727  0.539
26. NCI-H2405  0.541
27. LOU-NH91  0.566
28. NCI-H2085  0.652
29. NCI-H1395  0.689
30. NCI-H650  0.78
31. PC-3 [JPC-3]  0.789
32. 201T  0.961

Same assay, conditions: first compound 2.53 µM

In order of rising relative viability:
1. NCI-H460  0.0737
2. HARA  0.104
3. NCI-H358  0.118
4. LCLC-97TM1  0.177
5. NCI-H1975  0.181
6. LXF-289  0.189
7. NCI-H1944  0.203
8. A-427  0.213
9. CAL-12T  0.25
10. NCI-H23  0.253
11. EPLC-272H  0.313
12. NCI-H1355  0.335
13. NCI-H1915  0.367
14. NCI-H3122  0.384
15. HCC-15  0.385
16. HCC-78  0.405
17. HCC-827  0.409
18. HOP-62  0.41
19. NCI-H1437  0.448
20. NCI-H2085  0.467
21. BEN  0.479
22. NCI-H2347  0.489
23. NCI-H441  0.492
24. NCI-H322M  0.519
25. NCI-H1755  0.539
26. NCI-H727  0.58
27. NCI-H1666  0.582
28. NCI-H650  0.645
29. NCI-H1395  0.669
30. LOU-NH91  0.681
31. NCI-H2405  0.691
32. PC-3 [JPC-3]  0.771
33. 201T  0.804

Same assay, conditions: first compound 8 µM

In order of rising relative viability:
1. NCI-H358  0.101
2. NCI-H460  0.113
3. LXF-289  0.13
4. HARA  0.133
5. NCI-H1944  0.178
6. NCI-H1975  0.179
7. CAL-12T  0.185
8. A-427  0.192
9. NCI-H1355  0.281
10. HCC-15  0.298
11. LCLC-97TM1  0.325
12. HCC-78  0.391
13. HCC-827  0.391
14. NCI-H1755  0.394
15. NCI-H1915  0.404
16. NCI-H1437  0.407
17. NCI-H23  0.418
18. HOP-62  0.421
19. NCI-H2085  0.421
20. NCI-H1666  0.436
21. NCI-H3122  0.457
22. NCI-H727  0.458
23. NCI-H441  0.484
24. NCI-H2347  0.489
25. NCI-H322M  0.492
26. EPLC-272H  0.51
27. BEN  0.563
28. LOU-NH91  0.58
29. NCI-H2405  0.602
30. 201T  0.692
31. NCI-H1395  0.693
32. NCI-H650  0.727
